Data reported in PubChem BioAssay (NCI).
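1) Cells in 96-well plates. 2) Compound, 48 h, 5 concentrations. 3) Linear interpolation between surrounding doses. 4) Unreached endpoint = highest concentration. GI50 marks 50% less growth. TGI marks complete inhibition of growth.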

Columns and labels:
Assay in all cases: DTP human tumour cell line panel, 48 h
786-0 renal = system: 786-0 renal
A498 renal = system: A498 renal
A549 NSCLC = system: A549 NSCLC
ACHN renal = system: ACHN renal
BT-549 breast = system: BT-549 breast
CAKI-1 renal = system: CAKI-1 renal
CCRF-CEM leukemia = system: CCRF-CEM leukemia
COLO 205 colon = system: COLO 205 colon
DU-145 prostate = system: DU-145 prostate
EKVX NSCLC = system: EKVX NSCLC
HCC-2998 colon = system: HCC-2998 colon
HCT-116 colon = system: HCT-116 colon
HCT-15 colon = system: HCT-15 colon
HL-60(TB) leukemia = system: HL-60(TB) leukemia
HOP-62 NSCLC = system: HOP-62 NSCLC
HOP-92 NSCLC = system: HOP-92 NSCLC
HS 578T breast = system: HS 578T breast
HT29 colon = system: HT29 colon
IGROV1 ovarian = system: IGROV1 ovarian
K-562 leukemia = system: K-562 leukemia
KM12 colon = system: KM12 colon
LOX IMVI melanoma = system: LOX IMVI melanoma
M14 melanoma = system: M14 melanoma
MALME-3M melanoma = system: MALME-3M melanoma
MCF7 breast = system: MCF7 breast
MDA-MB-435 = system: MDA-MB-435
MDA-MB-468 breast = system: MDA-MB-468 breast
MOLT-4 leukemia = system: MOLT-4 leukemia
NCI-H226 lung = system: NCI-H226 lung
NCI-H23 lung = system: NCI-H23 lung
NCI-H460 lung = system: NCI-H460 lung
NCI-H522 lung = system: NCI-H522 lung
NCI/ADR-RES ovarian = system: NCI/ADR-RES ovarian
OVCAR-3 ovarian = system: OVCAR-3 ovarian
OVCAR-4 ovarian = system: OVCAR-4 ovarian
OVCAR-5 ovarian = system: OVCAR-5 ovarian
OVCAR-8 ovarian = system: OVCAR-8 ovarian
PC-3 prostate = system: PC-3 prostate
RPMI-8226 leukemia = system: RPMI-8226 leukemia
RXF 393 renal = system: RXF 393 renal
SF-268 CNS = system: SF-268 CNS
SF-295 CNS = system: SF-295 CNS
SF-539 CNS = system: SF-539 CNS
SK-MEL-28 melanoma = system: SK-MEL-28 melanoma
SK-MEL-5 melanoma = system: SK-MEL-5 melanoma
SK-OV-3 ovarian = system: SK-OV-3 ovarian
SN12C renal = system: SN12C renal
SNB-19 CNS = system: SNB-19 CNS
SR leukemia = system: SR leukemia
SW-620 colon = system: SW-620 colon
T-47D breast = system: T-47D breast
TK-10 renal = system: TK-10 renal
U251 CNS = system: U251 CNS
UACC-257 melanoma = system: UACC-257 melanoma
UACC-62 melanoma = system: UACC-62 melanoma

N#Cc1c(-c2ccc(F)cc2)nc(SCc2ccc(F)cc2)nc1N1CCNCC1
GI50 (786-0 renal): 13.8 µM
TGI (786-0 renal): 29.3 µM
GI50 (A498 renal): 15.3 µM
TGI (A498 renal): 29.8 µM
GI50 (A549 NSCLC): 11.5 µM
TGI (A549 NSCLC): 25 µM
GI50 (ACHN renal): 15 µM
TGI (ACHN renal): 28.5 µM
GI50 (BT-549 breast): 10.7 µM
TGI (BT-549 breast): 23 µM
GI50 (CAKI-1 renal): 15.3 µM
TGI (CAKI-1 renal): 29 µM
GI50 (CCRF-CEM leukemia): 14.8 µM
TGI (CCRF-CEM leukemia): 33.6 µM
GI50 (COLO 205 colon): 1.83 µM
TGI (COLO 205 colon): 3.4 µM
GI50 (DU-145 prostate): 16.8 µM
TGI (DU-145 prostate): 31.3 µM
GI50 (EKVX NSCLC): 13.1 µM
TGI (EKVX NSCLC): 26.4 µM
GI50 (HCC-2998 colon): 2.53 µM
TGI (HCC-2998 colon): 6.27 µM
GI50 (HCT-116 colon): 4.15 µM
TGI (HCT-116 colon): 15.6 µM
GI50 (HCT-15 colon): 11.7 µM
TGI (HCT-15 colon): 24.6 µM
GI50 (HL-60(TB) leukemia): 7.66 µM
TGI (HL-60(TB) leukemia): 24 µM
GI50 (HOP-62 NSCLC): 17 µM
TGI (HOP-62 NSCLC): 33.4 µM
GI50 (HOP-92 NSCLC): 7.64 µM
TGI (HOP-92 NSCLC): 22.1 µM
GI50 (HS 578T breast): 15.6 µM
TGI (HS 578T breast): 34.6 µM
GI50 (HT29 colon): 4.87 µM
TGI (HT29 colon): 17.3 µM
GI50 (IGROV1 ovarian): 15.6 µM
TGI (IGROV1 ovarian): 29.8 µM
GI50 (K-562 leukemia): 3.76 µM
TGI (K-562 leukemia): 17.8 µM
GI50 (KM12 colon): 18 µM
TGI (KM12 colon): 33.6 µM
GI50 (LOX IMVI melanoma): 2.28 µM
TGI (LOX IMVI melanoma): 5.69 µM
GI50 (M14 melanoma): 13.6 µM
TGI (M14 melanoma): 26.8 µM
GI50 (MALME-3M melanoma): 14.7 µM
TGI (MALME-3M melanoma): 28.4 µM
GI50 (MCF7 breast): 6.43 µM
TGI (MCF7 breast): 20.2 µM
GI50 (MDA-MB-435): 16.8 µM
TGI (MDA-MB-435): 31.3 µM
GI50 (MDA-MB-468 breast): 12.4 µM
TGI (MDA-MB-468 breast): 26.2 µM
GI50 (MOLT-4 leukemia): 10.5 µM
TGI (MOLT-4 leukemia): 26 µM
GI50 (NCI-H226 lung): 15.9 µM
TGI (NCI-H226 lung): 35.7 µM
GI50 (NCI-H23 lung): 16 µM
TGI (NCI-H23 lung): 30.4 µM
GI50 (NCI-H460 lung): 14.3 µM
TGI (NCI-H460 lung): 29.4 µM
GI50 (NCI-H522 lung): 13.9 µM
TGI (NCI-H522 lung): 29.9 µM
GI50 (NCI/ADR-RES ovarian): 13.7 µM
TGI (NCI/ADR-RES ovarian): 30.4 µM
GI50 (OVCAR-3 ovarian): 15.5 µM
TGI (OVCAR-3 ovarian): 30.8 µM
GI50 (OVCAR-4 ovarian): 16.5 µM
TGI (OVCAR-4 ovarian): 33.6 µM
GI50 (OVCAR-5 ovarian): 14.5 µM
TGI (OVCAR-5 ovarian): 28 µM
GI50 (OVCAR-8 ovarian): 13.2 µM
TGI (OVCAR-8 ovarian): 30.5 µM
GI50 (PC-3 prostate): 12.5 µM
TGI (PC-3 prostate): 27.7 µM
GI50 (RPMI-8226 leukemia): 6.75 µM
TGI (RPMI-8226 leukemia): 24.6 µM
GI50 (RXF 393 renal): 7.3 µM
TGI (RXF 393 renal): 21.4 µM
GI50 (SF-268 CNS): 14.1 µM
TGI (SF-268 CNS): 30.9 µM
GI50 (SF-295 CNS): 16.6 µM
TGI (SF-295 CNS): 30.9 µM
GI50 (SF-539 CNS): 15.6 µM
TGI (SF-539 CNS): 29 µM
GI50 (SK-MEL-28 melanoma): 16.4 µM
TGI (SK-MEL-28 melanoma): 30.2 µM
GI50 (SK-MEL-5 melanoma): 16.8 µM
TGI (SK-MEL-5 melanoma): 30.5 µM
GI50 (SK-OV-3 ovarian): 16 µM
TGI (SK-OV-3 ovarian): 29.8 µM
GI50 (SN12C renal): 15.3 µM
TGI (SN12C renal): 29 µM
GI50 (SNB-19 CNS): 14.9 µM
TGI (SNB-19 CNS): 29.4 µM
GI50 (SR leukemia): 2.18 µM
TGI (SR leukemia): 5.07 µM
GI50 (SW-620 colon): 5.97 µM
TGI (SW-620 colon): 19.2 µM
GI50 (T-47D breast): 13.8 µM
TGI (T-47D breast): 30.4 µM
GI50 (TK-10 renal): 15 µM
TGI (TK-10 renal): 29.7 µM
GI50 (U251 CNS): 10.3 µM
TGI (U251 CNS): 24.7 µM
GI50 (UACC-257 melanoma): 14.8 µM
TGI (UACC-257 melanoma): 28.7 µM
GI50 (UACC-62 melanoma): 15.9 µM
TGI (UACC-62 melanoma): 29.9 µM
